Source: PubChem BioAssay (NCI)
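Abbreviation: GI50, concentration required for 50% inhibition of growth. At the TGI there is no net growth.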

Assays:
Assay in all cases: NCI-60 cell line screen, 384-well format
HS 578T breast = test system: HS 578T breast
NCI-H322M lung = test system: NCI-H322M lung
NCI-H522 lung = test system: NCI-H522 lung
OVCAR-8 ovarian = test system: OVCAR-8 ovarian
SW-620 colon = test system: SW-620 colon
MDA-MB-435 melanoma = test system: MDA-MB-435 melanoma
HCT-15 colon = test system: HCT-15 colon
HOP-62 NSCLC = test system: HOP-62 NSCLC
HOP-92 NSCLC = test system: HOP-92 NSCLC
PC-3 prostate = test system: PC-3 prostate
786-0 renal = test system: 786-0 renal
UO-31 renal = test system: UO-31 renal
SK-MEL-5 melanoma = test system: SK-MEL-5 melanoma
MOLT-4 leukemia = test system: MOLT-4 leukemia
EKVX NSCLC = test system: EKVX NSCLC
DU-145 prostate = test system: DU-145 prostate
SNB-75 CNS = test system: SNB-75 CNS
U251 glioblastoma = test system: U251 glioblastoma
A549 NSCLC = test system: A549 NSCLC
SF-295 CNS = test system: SF-295 CNS
SR leukemia = test system: SR leukemia
MDA-MB-468 breast = test system: MDA-MB-468 breast
M14 melanoma = test system: M14 melanoma
UACC-257 melanoma = test system: UACC-257 melanoma
ACHN renal = test system: ACHN renal
NCI-H460 NSCLC = test system: NCI-H460 NSCLC
SN12C renal = test system: SN12C renal
OVCAR-4 ovarian = test system: OVCAR-4 ovarian
LOX IMVI melanoma = test system: LOX IMVI melanoma
NCI-H23 lung = test system: NCI-H23 lung
SK-OV-3 ovarian = test system: SK-OV-3 ovarian
T-47D breast = test system: T-47D breast
BT-549 breast = test system: BT-549 breast
CCRF-CEM leukemia = test system: CCRF-CEM leukemia
RPMI-8226 leukemia = test system: RPMI-8226 leukemia
CAKI-1 renal = test system: CAKI-1 renal
TK-10 renal = test system: TK-10 renal
IGROV1 ovarian = test system: IGROV1 ovarian
SF-268 CNS = test system: SF-268 CNS
HCC-2998 colon = test system: HCC-2998 colon
A498 renal = test system: A498 renal
HL-60(TB) leukemia = test system: HL-60(TB) leukemia
RXF 393 renal = test system: RXF 393 renal
MALME-3M melanoma = test system: MALME-3M melanoma
UACC-62 melanoma = test system: UACC-62 melanoma
NCI/ADR-RES ovarian = test system: NCI/ADR-RES ovarian
MCF7 breast = test system: MCF7 breast
OVCAR-5 ovarian = test system: OVCAR-5 ovarian
KM12 colon = test system: KM12 colon
SF-539 CNS = test system: SF-539 CNS
SK-MEL-28 melanoma = test system: SK-MEL-28 melanoma
NCI-H226 lung = test system: NCI-H226 lung
HCT-116 colon = test system: HCT-116 colon
COLO 205 colon = test system: COLO 205 colon
OVCAR-3 ovarian = test system: OVCAR-3 ovarian
MDA-MB-231 breast = test system: MDA-MB-231 breast
SNB-19 CNS = test system: SNB-19 CNS
HT29 colon = test system: HT29 colon

SMILES: CN1CC[C@@H](NC(=O)Nc2ccc(C#N)cc2)C[C@@H]1c1nc2ccccc2[nH]1
- GI50 (HS 578T breast): > 60 µM
- TGI (HS 578T breast): > 100 µM
- GI50 (NCI-H322M lung): > 100 µM
- TGI (NCI-H322M lung): > 100 µM
- GI50 (NCI-H522 lung): > 79.8 µM
- TGI (NCI-H522 lung): > 100 µM
- GI50 (OVCAR-8 ovarian): > 100 µM
- TGI (OVCAR-8 ovarian): > 100 µM
- GI50 (SW-620 colon): > 100 µM
- TGI (SW-620 colon): > 100 µM
- GI50 (MDA-MB-435 melanoma): > 100 µM
- TGI (MDA-MB-435 melanoma): > 100 µM
- GI50 (HCT-15 colon): > 87.8 µM
- TGI (HCT-15 colon): > 100 µM
- GI50 (HOP-62 NSCLC): > 100 µM
- TGI (HOP-62 NSCLC): > 100 µM
- GI50 (HOP-92 NSCLC): 39.5 µM
- TGI (HOP-92 NSCLC): 97.4 µM
- GI50 (PC-3 prostate): > 100 µM
- TGI (PC-3 prostate): > 100 µM
- GI50 (786-0 renal): 40.4 µM
- TGI (786-0 renal): > 100 µM
- GI50 (UO-31 renal): > 88.5 µM
- TGI (UO-31 renal): > 100 µM
- GI50 (SK-MEL-5 melanoma): 18.2 µM
- TGI (SK-MEL-5 melanoma): > 100 µM
- GI50 (MOLT-4 leukemia): 18.2 µM
- TGI (MOLT-4 leukemia): 36.4 µM
- GI50 (EKVX NSCLC): > 93.7 µM
- TGI (EKVX NSCLC): > 100 µM
- GI50 (DU-145 prostate): 73.8 µM
- TGI (DU-145 prostate): > 100 µM
- GI50 (SNB-75 CNS): > 58.6 µM
- TGI (SNB-75 CNS): > 95.9 µM
- GI50 (U251 glioblastoma): > 100 µM
- TGI (U251 glioblastoma): > 100 µM
- GI50 (A549 NSCLC): > 87.9 µM
- TGI (A549 NSCLC): > 100 µM
- GI50 (SF-295 CNS): > 80.7 µM
- TGI (SF-295 CNS): > 100 µM
- GI50 (SR leukemia): 23.4 µM
- TGI (SR leukemia): 65.2 µM
- GI50 (MDA-MB-468 breast): 32.9 µM
- TGI (MDA-MB-468 breast): > 95.9 µM
- GI50 (M14 melanoma): > 100 µM
- TGI (M14 melanoma): > 100 µM
- GI50 (UACC-257 melanoma): > 89.3 µM
- TGI (UACC-257 melanoma): > 100 µM
- GI50 (ACHN renal): > 84.7 µM
- TGI (ACHN renal): > 100 µM
- GI50 (NCI-H460 NSCLC): > 100 µM
- TGI (NCI-H460 NSCLC): > 100 µM
- GI50 (SN12C renal): > 100 µM
- TGI (SN12C renal): > 100 µM
- GI50 (OVCAR-4 ovarian): 92.4 µM
- TGI (OVCAR-4 ovarian): > 100 µM
- GI50 (LOX IMVI melanoma): > 100 µM
- TGI (LOX IMVI melanoma): > 100 µM
- GI50 (NCI-H23 lung): > 75.2 µM
- TGI (NCI-H23 lung): > 100 µM
- GI50 (SK-OV-3 ovarian): > 100 µM
- TGI (SK-OV-3 ovarian): > 100 µM
- GI50 (T-47D breast): 37.9 µM
- TGI (T-47D breast): > 100 µM
- GI50 (BT-549 breast): > 49.4 µM
- TGI (BT-549 breast): > 93.7 µM
- GI50 (CCRF-CEM leukemia): 74.7 µM
- TGI (CCRF-CEM leukemia): > 100 µM
- GI50 (RPMI-8226 leukemia): 54.2 µM
- TGI (RPMI-8226 leukemia): > 100 µM
- GI50 (CAKI-1 renal): > 100 µM
- TGI (CAKI-1 renal): > 100 µM
- GI50 (TK-10 renal): > 100 µM
- TGI (TK-10 renal): > 100 µM
- GI50 (IGROV1 ovarian): 75.1 µM
- TGI (IGROV1 ovarian): > 100 µM
- GI50 (SF-268 CNS): > 86.7 µM
- TGI (SF-268 CNS): > 100 µM
- GI50 (HCC-2998 colon): 47.7 µM
- TGI (HCC-2998 colon): > 100 µM
- GI50 (A498 renal): > 85.2 µM
- TGI (A498 renal): > 100 µM
- GI50 (HL-60(TB) leukemia): > 87.7 µM
- TGI (HL-60(TB) leukemia): > 100 µM
- GI50 (RXF 393 renal): > 46.8 µM
- TGI (RXF 393 renal): > 86.7 µM
- GI50 (MALME-3M melanoma): 24.4 µM
- TGI (MALME-3M melanoma): > 61.4 µM
- GI50 (UACC-62 melanoma): > 61.8 µM
- TGI (UACC-62 melanoma): > 100 µM
- GI50 (NCI/ADR-RES ovarian): > 100 µM
- TGI (NCI/ADR-RES ovarian): > 100 µM
- GI50 (MCF7 breast): > 72.1 µM
- TGI (MCF7 breast): > 100 µM
- GI50 (OVCAR-5 ovarian): > 87.8 µM
- TGI (OVCAR-5 ovarian): > 100 µM
- GI50 (KM12 colon): > 100 µM
- TGI (KM12 colon): > 100 µM
- GI50 (SF-539 CNS): > 100 µM
- TGI (SF-539 CNS): > 100 µM
- GI50 (SK-MEL-28 melanoma): > 82.8 µM
- TGI (SK-MEL-28 melanoma): > 100 µM
- GI50 (NCI-H226 lung): > 59.6 µM
- TGI (NCI-H226 lung): > 100 µM
- GI50 (HCT-116 colon): 61.2 µM
- TGI (HCT-116 colon): > 100 µM
- GI50 (COLO 205 colon): > 85.1 µM
- TGI (COLO 205 colon): > 100 µM
- GI50 (OVCAR-3 ovarian): > 67.4 µM
- TGI (OVCAR-3 ovarian): > 100 µM
- GI50 (MDA-MB-231 breast): 61.4 µM
- TGI (MDA-MB-231 breast): > 100 µM
- GI50 (SNB-19 CNS): > 100 µM
- TGI (SNB-19 CNS): > 100 µM
- GI50 (HT29 colon): 69.3 µM
- TGI (HT29 colon): > 100 µM
